Data as given in ChEMBL document CHEMBL4507283, “Data for DCP probe BI-1935” (2021).

Assays:
[1] = biological target: SRSF protein kinase 3 (Homo sapiens) (UniProt Q9UPE1); conditions: Compound concentration 1000.0 nM
[2] = biological target: Vascular endothelial growth factor receptor 2 (Homo sapiens) (UniProt P35968); conditions: Compound concentration 1000.0 nM
[3] = biological target: Cyclin-dependent kinase 4 (Homo sapiens) (UniProt P11802); conditions: Compound concentration 1000.0 nM
[4] = system: Receptor-type tyrosine-protein kinase FLT3 (Homo sapiens), P36888 [D835H]; conditions: Compound concentration 1000.0 nM
[5] = biological target: Protein kinase C epsilon type (Homo sapiens) (UniProt Q02156); conditions: Compound concentration 1000.0 nM
[6] = biological target: 5'-AMP-activated protein kinase catalytic subunit alpha-1 (Homo sapiens) (UniProt Q13131); conditions: Compound concentration 1000.0 nM
[7] = biological target: 5-hydroxytryptamine receptor 7 (Homo sapiens) (UniProt P34969); conditions: Compound concentration 10.0 uM
[8] = biological target: Beta-2 adrenergic receptor (Homo sapiens) (UniProt P07550); conditions: Compound concentration 10.0 uM
[9] = system: Proto-oncogene tyrosine-protein kinase receptor Ret (Homo sapiens), P07949 [V804L]; conditions: Compound concentration 1000.0 nM
[10] = biological target: Peripheral plasma membrane protein CASK (Homo sapiens) (UniProt O14936); conditions: Compound concentration 1000.0 nM
[11] = biological target: Mast/stem cell growth factor receptor Kit (Homo sapiens) (UniProt P10721); conditions: Compound concentration 1000.0 nM
Chain of Mast/stem cell growth factor receptor Kit (Homo sapiens) (P10721 whole entry): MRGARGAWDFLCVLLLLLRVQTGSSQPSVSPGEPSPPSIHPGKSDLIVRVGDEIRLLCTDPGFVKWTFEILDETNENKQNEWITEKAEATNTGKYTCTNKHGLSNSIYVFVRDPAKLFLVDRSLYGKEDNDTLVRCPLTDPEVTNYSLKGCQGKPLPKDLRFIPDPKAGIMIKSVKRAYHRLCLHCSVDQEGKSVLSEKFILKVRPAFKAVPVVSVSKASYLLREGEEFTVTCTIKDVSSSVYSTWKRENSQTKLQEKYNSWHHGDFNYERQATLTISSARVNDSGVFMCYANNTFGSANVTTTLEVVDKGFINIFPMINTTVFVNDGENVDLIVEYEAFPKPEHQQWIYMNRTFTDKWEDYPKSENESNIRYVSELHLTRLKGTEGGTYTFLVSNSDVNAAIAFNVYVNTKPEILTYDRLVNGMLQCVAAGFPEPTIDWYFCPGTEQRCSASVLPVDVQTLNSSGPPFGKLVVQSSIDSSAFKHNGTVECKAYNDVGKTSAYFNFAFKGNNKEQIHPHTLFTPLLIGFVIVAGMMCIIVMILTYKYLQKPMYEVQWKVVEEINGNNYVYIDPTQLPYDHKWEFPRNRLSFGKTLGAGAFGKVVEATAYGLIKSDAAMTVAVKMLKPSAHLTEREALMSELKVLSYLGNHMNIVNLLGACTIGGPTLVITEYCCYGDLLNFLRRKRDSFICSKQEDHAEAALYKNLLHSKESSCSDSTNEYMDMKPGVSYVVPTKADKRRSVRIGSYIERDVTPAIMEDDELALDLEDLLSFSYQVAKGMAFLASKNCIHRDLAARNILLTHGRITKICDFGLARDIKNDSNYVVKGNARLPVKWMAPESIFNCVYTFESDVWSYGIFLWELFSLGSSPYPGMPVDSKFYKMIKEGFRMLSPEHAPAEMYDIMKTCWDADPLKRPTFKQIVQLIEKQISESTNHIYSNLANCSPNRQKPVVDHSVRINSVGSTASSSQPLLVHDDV

[12] = biological target: Homeodomain-interacting protein kinase 3 (Homo sapiens) (UniProt Q9H422); conditions: Compound concentration 1000.0 nM
[13] = biological target: Homeodomain-interacting protein kinase 2 (Homo sapiens) (UniProt Q9H2X6); conditions: Compound concentration 1000.0 nM
[14] = biological target: Tyrosine-protein kinase Srms (Homo sapiens) (UniProt Q9H3Y6); conditions: Compound concentration 1000.0 nM
[15] = biological target: Casein kinase I isoform gamma-3 (Homo sapiens) (UniProt Q9Y6M4); conditions: Compound concentration 1000.0 nM
[16] = biological target: Calcium/calmodulin-dependent protein kinase type 1D (Homo sapiens) (UniProt Q8IU85); conditions: Compound concentration 1000.0 nM
[17] = biological target: 3',5'-cyclic-AMP phosphodiesterase 4A (Homo sapiens) (UniProt P27815); test: PDE-IV/HU Eurofins-Panlabs selectivity data (BI); conditions: Compound concentration 10.0 uM
[18] = system: Tyrosine-protein kinase ABL1 (Homo sapiens), P00519 [T315I]; conditions: Compound concentration 1000.0 nM
[19] = biological target: Leukotriene C4 synthase (Cavia porcellus) (UniProt A6XA80); test: LTC4SYN Eurofins-Panlabs selectivity data (BI); conditions: Compound concentration 10.0 uM
[20] = biological target: Serine/threonine-protein kinase Nek9 (Homo sapiens) (UniProt Q8TD19); conditions: Compound concentration 1000.0 nM
[21] = biological target: Inhibitor of nuclear factor kappa-B kinase subunit alpha (Homo sapiens) (UniProt O15111); conditions: Compound concentration 1000.0 nM
[22] = biological target: RAC-gamma serine/threonine-protein kinase (Homo sapiens) (UniProt Q9Y243); conditions: Compound concentration 1000.0 nM
[23] = biological target: Small conductance calcium-activated potassium channel protein 1 (Rattus norvegicus) (UniProt P70606); test: K+/SKCA Eurofins-Panlabs selectivity data (BI); conditions: Compound concentration 10.0 uM
[24] = biological target: Mitogen-activated protein kinase 10 (Homo sapiens) (UniProt P53779); conditions: Compound concentration 1000.0 nM
[25] = system: Mast/stem cell growth factor receptor Kit (Homo sapiens), P10721 [D816V]; conditions: Compound concentration 1000.0 nM
[26] = biological target: RAC-beta serine/threonine-protein kinase (Homo sapiens) (UniProt P31751); conditions: Compound concentration 1000.0 nM
[27] = biological target: TRAF2 and NCK-interacting protein kinase (Homo sapiens) (UniProt Q9UKE5); conditions: Compound concentration 1000.0 nM
[28] = biological target: Mitogen-activated protein kinase 9 (Homo sapiens) (UniProt P45984); conditions: Compound concentration 1000.0 nM
[29] = system: Receptor-type tyrosine-protein kinase FLT3 (Homo sapiens), P36888 [K663Q]; conditions: Compound concentration 1000.0 nM
[30] = biological target: Cytoplasmic tyrosine-protein kinase BMX (Homo sapiens) (UniProt P51813); conditions: Compound concentration 1000.0 nM
[31] = system: Epidermal growth factor receptor (Homo sapiens), P00533 [UNDEFINED MUTATION]; conditions: Compound concentration 1000.0 nM
Chain of Epidermal growth factor receptor (Homo sapiens), P00533 [UNDEFINED MUTATION] (P00533 whole entry, looked up, change not shown, canonical isoform): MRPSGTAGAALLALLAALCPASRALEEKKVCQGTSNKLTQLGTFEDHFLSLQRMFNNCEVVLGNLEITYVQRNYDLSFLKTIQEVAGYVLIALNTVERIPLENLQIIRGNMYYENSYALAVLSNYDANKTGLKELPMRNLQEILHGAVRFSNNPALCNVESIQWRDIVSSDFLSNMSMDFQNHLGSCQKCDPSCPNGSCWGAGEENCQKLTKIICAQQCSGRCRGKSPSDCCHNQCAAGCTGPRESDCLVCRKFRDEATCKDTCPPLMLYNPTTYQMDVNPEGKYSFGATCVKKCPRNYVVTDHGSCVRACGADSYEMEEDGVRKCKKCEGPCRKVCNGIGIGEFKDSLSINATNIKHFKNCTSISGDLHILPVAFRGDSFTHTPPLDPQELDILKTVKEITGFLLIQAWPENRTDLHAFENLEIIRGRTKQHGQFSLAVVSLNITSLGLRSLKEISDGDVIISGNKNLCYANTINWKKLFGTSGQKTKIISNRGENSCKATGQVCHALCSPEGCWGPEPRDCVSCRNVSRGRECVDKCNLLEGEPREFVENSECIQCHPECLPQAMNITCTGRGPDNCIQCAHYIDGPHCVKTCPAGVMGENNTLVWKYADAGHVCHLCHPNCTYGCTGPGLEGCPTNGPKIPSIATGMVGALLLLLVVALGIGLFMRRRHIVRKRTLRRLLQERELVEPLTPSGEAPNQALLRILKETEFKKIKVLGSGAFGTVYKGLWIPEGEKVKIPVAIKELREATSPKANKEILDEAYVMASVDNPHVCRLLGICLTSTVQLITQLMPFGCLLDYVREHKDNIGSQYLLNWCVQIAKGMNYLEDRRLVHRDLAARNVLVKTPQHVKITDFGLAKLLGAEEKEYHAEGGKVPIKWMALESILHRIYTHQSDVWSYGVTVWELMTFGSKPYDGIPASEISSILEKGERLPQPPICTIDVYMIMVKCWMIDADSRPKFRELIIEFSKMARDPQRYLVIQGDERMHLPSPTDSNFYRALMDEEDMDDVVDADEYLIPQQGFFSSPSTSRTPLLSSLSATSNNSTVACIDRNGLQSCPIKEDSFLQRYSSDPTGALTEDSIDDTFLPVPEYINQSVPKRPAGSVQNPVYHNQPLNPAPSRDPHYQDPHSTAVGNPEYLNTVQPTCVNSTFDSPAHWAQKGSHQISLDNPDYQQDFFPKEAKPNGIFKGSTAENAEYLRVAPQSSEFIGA

[32] = biological target: Phosphorylase b kinase regulatory subunit alpha, liver isoform (Homo sapiens) (UniProt P46019); conditions: Compound concentration 1000.0 nM
[33] = biological target: Voltage-dependent L-type calcium channel subunit alpha-1C (diltiazem site) (Rattus norvegicus, UniProt P22002); test: CA+/DILSI/RA Eurofins-Panlabs selectivity data (BI); conditions: compound concentration 10 uM, read-out: % Ctrl
[34] = biological target: Tyrosine-protein kinase TXK (Homo sapiens) (UniProt P42681); conditions: Compound concentration 1000.0 nM
[35] = biological target: GABA-A receptor; anion channel (Rattus norvegicus) (UniProt O09028+P15431+P18506+P18508+P19969+P20236+P23574+P23576+P28471+P28473+P30191+P62813+P63079+P63138+Q91ZM7+Q9ES14); conditions: Compound concentration 10.0 uM
[36] = biological target: Phospholipase A2 (Sus scrofa) (UniProt A0A8D1VEY7); test: PLA2 Eurofins-Panlabs selectivity data (BI); conditions: Compound concentration 10.0 uM
[37] = biological target: Serine/threonine-protein kinase 38-like (Homo sapiens) (UniProt Q9Y2H1); conditions: Compound concentration 1000.0 nM
[38] = biological target: Delta-type opioid receptor (Homo sapiens) (UniProt P41143); conditions: Compound concentration 10.0 uM
[39] = biological target: 5-hydroxytryptamine receptor 1D (Homo sapiens) (UniProt P28221); conditions: Compound concentration 10.0 uM
[40] = biological target: Mitogen-activated protein kinase kinase kinase 4 (Homo sapiens) (UniProt Q9Y6R4); conditions: Compound concentration 1000.0 nM
Chain of Mitogen-activated protein kinase kinase kinase 4 (Homo sapiens) (Q9Y6R4 whole entry): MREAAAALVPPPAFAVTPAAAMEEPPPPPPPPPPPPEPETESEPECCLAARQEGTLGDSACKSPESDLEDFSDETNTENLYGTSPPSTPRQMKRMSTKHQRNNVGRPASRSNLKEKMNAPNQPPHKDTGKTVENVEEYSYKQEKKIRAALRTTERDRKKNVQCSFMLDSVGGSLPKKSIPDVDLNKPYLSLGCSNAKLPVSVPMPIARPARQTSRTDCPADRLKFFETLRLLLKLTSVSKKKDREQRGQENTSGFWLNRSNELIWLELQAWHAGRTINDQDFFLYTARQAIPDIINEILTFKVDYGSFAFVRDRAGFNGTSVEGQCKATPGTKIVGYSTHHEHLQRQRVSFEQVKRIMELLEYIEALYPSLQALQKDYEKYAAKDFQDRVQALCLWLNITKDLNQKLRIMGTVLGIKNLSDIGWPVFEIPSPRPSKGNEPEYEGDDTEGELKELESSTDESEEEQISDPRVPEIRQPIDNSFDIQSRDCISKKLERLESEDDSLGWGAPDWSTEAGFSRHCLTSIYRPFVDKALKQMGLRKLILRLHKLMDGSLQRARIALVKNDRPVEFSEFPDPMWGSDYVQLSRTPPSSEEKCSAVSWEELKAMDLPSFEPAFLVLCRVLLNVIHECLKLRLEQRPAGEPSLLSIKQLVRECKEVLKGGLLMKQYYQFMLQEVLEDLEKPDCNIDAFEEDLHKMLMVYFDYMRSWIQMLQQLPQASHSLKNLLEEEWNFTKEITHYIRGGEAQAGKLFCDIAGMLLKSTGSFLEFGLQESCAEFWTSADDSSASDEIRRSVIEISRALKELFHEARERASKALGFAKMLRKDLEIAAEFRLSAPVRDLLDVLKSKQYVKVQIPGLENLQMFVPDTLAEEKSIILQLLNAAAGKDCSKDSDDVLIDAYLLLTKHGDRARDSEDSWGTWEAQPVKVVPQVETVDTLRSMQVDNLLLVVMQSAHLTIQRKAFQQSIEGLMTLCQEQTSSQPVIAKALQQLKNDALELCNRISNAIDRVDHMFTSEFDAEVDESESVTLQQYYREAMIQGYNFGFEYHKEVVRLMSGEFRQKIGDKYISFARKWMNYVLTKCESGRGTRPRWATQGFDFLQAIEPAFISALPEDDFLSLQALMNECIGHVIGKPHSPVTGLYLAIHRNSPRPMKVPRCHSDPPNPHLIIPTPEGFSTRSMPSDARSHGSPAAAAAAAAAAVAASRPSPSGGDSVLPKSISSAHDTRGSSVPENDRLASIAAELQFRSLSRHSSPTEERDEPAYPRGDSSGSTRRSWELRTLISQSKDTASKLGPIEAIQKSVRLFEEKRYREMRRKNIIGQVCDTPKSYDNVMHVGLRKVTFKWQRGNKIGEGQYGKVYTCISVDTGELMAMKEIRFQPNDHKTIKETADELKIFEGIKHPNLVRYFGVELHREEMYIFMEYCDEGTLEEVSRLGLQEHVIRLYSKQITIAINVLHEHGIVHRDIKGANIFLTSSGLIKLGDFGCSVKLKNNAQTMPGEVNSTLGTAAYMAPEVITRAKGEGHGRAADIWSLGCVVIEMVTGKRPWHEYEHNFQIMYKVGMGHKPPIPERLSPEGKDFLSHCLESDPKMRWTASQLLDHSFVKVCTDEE

[41] = biological target: Serine/threonine-protein kinase Nek1 (Homo sapiens) (UniProt Q96PY6); conditions: Compound concentration 1000.0 nM
[42] = biological target: Serine/threonine-protein kinase SBK1 (Homo sapiens) (UniProt Q52WX2); conditions: Compound concentration 1000.0 nM
[43] = biological target: Tyrosine-protein kinase Tec (Homo sapiens) (UniProt P42680); conditions: Compound concentration 1000.0 nM

Chain of Vascular endothelial growth factor receptor 2 (Homo sapiens) (P35968 whole entry): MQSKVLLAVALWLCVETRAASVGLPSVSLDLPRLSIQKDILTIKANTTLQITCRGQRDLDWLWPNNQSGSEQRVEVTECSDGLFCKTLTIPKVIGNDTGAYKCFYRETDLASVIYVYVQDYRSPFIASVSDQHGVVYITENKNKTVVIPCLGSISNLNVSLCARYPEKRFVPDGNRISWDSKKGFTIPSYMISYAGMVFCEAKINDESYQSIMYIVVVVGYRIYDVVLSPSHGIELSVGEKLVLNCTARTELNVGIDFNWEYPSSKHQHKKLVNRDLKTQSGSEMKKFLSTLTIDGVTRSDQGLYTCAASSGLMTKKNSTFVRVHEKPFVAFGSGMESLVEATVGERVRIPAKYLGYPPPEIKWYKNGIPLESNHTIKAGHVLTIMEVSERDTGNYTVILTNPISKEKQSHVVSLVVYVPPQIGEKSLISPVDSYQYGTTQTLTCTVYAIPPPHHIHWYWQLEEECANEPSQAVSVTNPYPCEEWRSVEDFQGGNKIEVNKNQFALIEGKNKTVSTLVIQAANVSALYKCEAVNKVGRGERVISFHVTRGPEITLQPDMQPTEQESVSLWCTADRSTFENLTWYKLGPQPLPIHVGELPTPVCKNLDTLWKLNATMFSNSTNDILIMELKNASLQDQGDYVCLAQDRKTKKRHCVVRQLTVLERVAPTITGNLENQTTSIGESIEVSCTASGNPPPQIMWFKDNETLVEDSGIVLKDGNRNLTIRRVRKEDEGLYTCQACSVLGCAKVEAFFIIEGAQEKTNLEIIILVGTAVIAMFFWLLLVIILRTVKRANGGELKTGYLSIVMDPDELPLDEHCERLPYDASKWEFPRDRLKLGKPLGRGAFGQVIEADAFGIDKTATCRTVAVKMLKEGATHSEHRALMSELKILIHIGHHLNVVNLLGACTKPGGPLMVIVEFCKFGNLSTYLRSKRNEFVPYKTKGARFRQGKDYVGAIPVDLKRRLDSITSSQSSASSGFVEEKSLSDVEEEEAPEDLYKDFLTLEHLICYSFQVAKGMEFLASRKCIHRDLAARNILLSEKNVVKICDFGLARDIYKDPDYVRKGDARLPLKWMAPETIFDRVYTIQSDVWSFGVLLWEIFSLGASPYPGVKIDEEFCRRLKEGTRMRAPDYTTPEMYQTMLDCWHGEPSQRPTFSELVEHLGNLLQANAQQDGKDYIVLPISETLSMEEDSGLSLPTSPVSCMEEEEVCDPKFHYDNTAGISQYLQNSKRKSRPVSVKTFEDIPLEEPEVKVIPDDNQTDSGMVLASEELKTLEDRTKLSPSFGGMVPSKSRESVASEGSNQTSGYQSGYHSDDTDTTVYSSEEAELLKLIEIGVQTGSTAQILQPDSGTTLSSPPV

CCOCCn1cc(C(=O)Nc2ccc(-n3nc(-c4cccnc4)cc3C(F)(F)F)cn2)ccc1=O [BI 1935]
residual activity [1]: 100%
residual activity [2]: 81%
residual activity [3]: 81%
residual activity [4]: 87%
residual activity [5]: 100%
residual activity [6]: 100%
inhibition [7]: -4.21%
inhibition [8]: -1.17%
residual activity [9]: 97%
residual activity [10]: 85%
residual activity [11]: 100%
residual activity [12]: 76%
residual activity [13]: 100%
residual activity [14]: 79%
residual activity [15]: 100%
residual activity [16]: 100%
residual activity [17]: 86%
residual activity [18]: 96%
residual activity [19]: 112%
residual activity [20]: 100%
residual activity [21]: 100%
residual activity [22]: 100%
residual activity [23]: 106%
residual activity [24]: 100%
residual activity [25]: 92%
residual activity [26]: 100%
residual activity [27]: 100%
residual activity [28]: 97%
residual activity [29]: 98%
residual activity [30]: 84%
residual activity [31]: 100%
residual activity [32]: 100%
activity at 10 µM [33]: 95% (not active)
residual activity [34]: 81%
inhibition [35]: 34.3%
residual activity [36]: 96%
residual activity [37]: 66%
inhibition [38]: -6.39%
inhibition [39]: 0.593%
residual activity [40]: 59%
residual activity [41]: 100%
residual activity [42]: 91%
residual activity [43]: 100%
